From patent publication US11766472B2, “Method of treatment for hair loss” (priority 2021, dated 2023)
Like-named read-outs stand apart in the source and are kept apart here.

Legend:
[1] = tested on: hair loss (men Norwood Hamilton grade III to grade V; women Ludwig grade II and III); details: human, in vivo
Protocol: (§1) This controlled clinical trial compares the current treatment for hair loss within two controlled groups for both men and women against the use of one embodiment of the nutritional therapy regimen described herein. One hundred patients in each of the 4 groups, a total of 400 patients, were followed for 1 year. The progress was evaluated every 2 months with computerized measurements of hair density, hair caliber, global photography and uniquely designed self-assessment scores.
(§2) Group 3 TM: Treatment group for 100 men (TM) and
(§3) Group 4 TW: treatment group for 100 women (TW)
(§4) Treatment groups for both men and women followed the same protocol.

[2] = tested on: hair loss (men Norwood Hamilton grade III to grade V; women Ludwig grade II and III); experiment: Controlled clinical trial: minoxidil and finasteride in men, minoxidil alone in women, versus nutrient treatment regimen (Example 1); details: human, in vivo
Protocol: as §1, §2, §3, §4

hair loss = details: cited from earlier work

SMILES | Duration for which patients complained of hair loss (initial shedding) [1] | Side effects observed with the control group [2] | Side effects observed with the control group [1] | Patients having deteriorated with hair loss more than the initial status (hair loss; after one year) [%] | Improvement (hair loss; end of 1 year) | Non-responders (hair loss; end of 1 year)
Nc1cc(N2CCCCC2)nc(N)[n+]1[O-] [minoxidil] | 8-10 weeks | scalp irritation, dryness, itching, and frizzy hair | – | – | – | –
CC(C)(C)NC(=O)[C@H]1CC[C@H]2[C@@H]3CC[C@H]4NC(=O)C=C[C@]4(C)[C@H]3CC[C@]12C [finasteride] | – | – | Loss of libido was reported by a few patients | 17 | 48-59% | 41-52%
